Assay results from US7998739B2, “Methods of activating NKT cells” (The Scipps Research Institute, priority 2004, dated 2011).
“Also recorded” adds a separate entry of the source.

What was measured:
[1] = tested on: human Vα24 NKT line; test: Cytokine secretion by human Vα24 NKT line stimulated with glycolipid-pulsed antigen presenting cells (ELISA); assay type: cell-based; details: for stimulation of human Vα24 NKT cells: in the presence of antigen-presenting cells; for Th1 (IFNγ) cytokine secretion by polyclonal human NKT line / Th2 (IL4) cytokine secretion by polyclonal human NKT line: 100 ng/ml in FIG. 3C right panel
Protocol: FIG. 3C left panel depicts IFN-γ production by a human Vα24 NKT line stimulated with a range of concentrations of iGb3 and αGalCer in the presence of irradiated PBMC as CD1d-expressing antigen presenting cells. The right panel depicts IFN-γ vs. IL-4 production by the human Vα24 NKT line in response to irradiated PBMC and 100 ng/ml of iGb3 of synthetic, purified and enzymatic origin, vs. 100 ng/ml of αGalCer, Gb3 or LacCer, as indicated.
(§1) CD1d-restricted T cell responses. Antigen presenting cells were mouse spleen cells cultured at 5×10^5 cells/well, mouse bone marrow-derived dendritic cells generated in the presence of GMC-SF and IL4, activated overnight with 10 ng/ml TNF-α and cultured at 5×10^4 cells/well, and human PBMC or GM-CSF/IL-4 cultured PBMC-derived dendritic cells cultured at 2.5×10^5 cells/well. NKT hybridomas were cultured at 5×10^4 cells/well and the human NKT line was cultured at 2.5×10^5 cells/well. Cytokines released in the culture supernatant were measured by standard ELISA for human IL-4 and IFN-γ (Pharmingen-Becton Dickinson, CA), and the indicator CTLL IL2 bioassay for mouse hybridomas. NKT hybridomas DN32.D3 (Vα14^+), TCBII (Vα14^−), TBA7 (Vα14^−) and the rat basophil leukemia RBL.CD1d transfectant line were used as described in Park, S-H et al., J. Immunol. 160 3128-34 (1998), incorporated herein by reference in its entirety. The human polyclonal Vα24Vβ11 NKT line was derived by repeated αGalCer stimulation of healthy human PBL in vitro and maintained by PHA and IL2 restimulation, and two different subclones, CD4 and DN, were used in experiments. Griffonia Simplicifolia isolectin B4 (IB4) was from Vector Laboratories, and anti-human CD1d mAb 51 was obtained from Dr. S. Porcelli. For stimulation with synthetic glycolipids, APCs were pulsed for 6 hours with various concentrations of lipids (from stock solution in DMSO), washed and incubated with NKT cell hybridoma or cell lines for 18-24 hours.

[2] = target: T1, mCD1d-GT (mouse CD1d preloaded with GT1b) (Mus musculus, UniProt P11609); test: CD1d lipid loading in the presence of saposin B, visualized by isoelectrofocusing; assay type: binding; details: cell-free; for replacement of GT1b preloaded onto CD1d: 2 μM mCD1d-GT, 25 μM isogloboside, with or without 5 μM saposin B
T1 construct: made in house; host or cells: fly expression system
T1 sequence (P11609 19-297 limits assumed): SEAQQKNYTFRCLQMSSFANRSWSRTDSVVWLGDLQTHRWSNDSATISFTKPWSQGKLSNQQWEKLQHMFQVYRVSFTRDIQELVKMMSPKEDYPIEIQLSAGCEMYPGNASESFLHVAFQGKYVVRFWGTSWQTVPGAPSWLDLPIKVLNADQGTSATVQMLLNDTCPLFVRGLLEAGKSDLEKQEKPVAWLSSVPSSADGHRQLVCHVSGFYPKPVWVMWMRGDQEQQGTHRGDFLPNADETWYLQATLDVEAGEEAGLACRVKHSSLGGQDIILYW
T1 sequence (P01887 21-119 partner): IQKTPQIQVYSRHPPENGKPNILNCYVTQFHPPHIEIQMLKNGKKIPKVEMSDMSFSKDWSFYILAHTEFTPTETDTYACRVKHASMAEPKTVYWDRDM
Excerpt: (§2) FIG. 4C left panel depicts in vitro loading of iGb3 and iGb4 onto recombinant CD1d in the presence of saposin B, visualized by isoelectrofocusing.
(§3) CD1d lipid loading and cell-free presentation assay. Purified complexes of CD1 d-GT were made and exchange of lipid in these complexes was quantified from isoelectric focusing gels as previously described by Cantu C III, et al., J. Immunol. 170, 4673-82 (2003), incorporated herein by reference in its entirety. Saposin-mediated loading of lipid was performed with recombinant human saposin B as described in Zhou D et al., Science 303, 523-27 (2004), incorporated herein by reference in its entirety, and with mouse saposin B. Recombinant mouse saposin B was expressed in a fly expression system and purified in the same manner used for production of mouse CD1d, described in Benlagha K, et al., J. Exp. Med 191, 1895-1903 (2000), incorporated herein by reference in its entirety. […] Stimulation of the NKT cell hybridoma DN32.D3 was measured. Briefly, mouse CD1d protein was coated for 24 h at 1 μg/well in phosphate-buffered saline (PBS) on 96-well plates. Plates were washed three times with PBS and then incubated for another 24 h with a constant lipid concentration of 6 μg/ml and various concentrations of mouse saposin B. Plates were washed three times with PBS; then 2×10^4 hybridoma cells were added. Supernatants were collected after 24 h to measure IL-2 release.

[3] = tested on: non-Vα14 hybridomas; test: Stimulation of non-Vα14 hybridomas by glycolipid presented by bone marrow-derived dendritic cells; assay type: cell-based, mouse; details: not shown
Protocol: as §1, with “For stimulation with synthetic glycolipids, APCs were pulsed for 6 hours with various concentrations of lipids (from stock solution in DMSO), washed and incubated with NKT cell hybridoma or cell lines for 18-24 hours.” left out

[4] = tested on: mouse Vα14 hybridoma DN32.D3; test: Stimulation of mouse Vα14 NKT hybridomas by glycolipids with bone marrow-derived dendritic cells (CTLL IL2 bioassay); assay type: cell-based; details: for presentation to DN32.D3 by Hexb−/− cells: bone marrow-derived DC from Hexb−/− mice; for stimulation of mouse Vα14 NKT cells: in the presence of antigen-presenting cells
Protocol: FIG. 4A depicts stimulation of mouse Vα14 hybridoma DN32.D3 by iGb3 and iGb4 with bone marrow-derived DC as CD1d-expressing antigen-presenting cells from Hexb^−/−, Hexb^−/− and CD1-TD mice, as indicated.
as §1

[5] = tested on: NKT cell hybridoma DN32.D3; test: Cell-free presentation to DN32.D3 by plate-bound CD1d in the presence of saposin B (IL-2 release); assay type: cell-based, mouse; details: lipid 6 μg/ml
Excerpt: as §2
as §3, with “Supernatants were collected after 24 h to measure IL-2 release.” left out

[6] = tested on: human Vα24 NKT cells; test: Expansion of hVα24 NKT cells in 4-day cultures of fresh PBMC (anti-Vα24 / CD1d-αGalCer tetramer staining); assay type: cell-based; details: 100 ng/ml
Protocol: FIG. 3B depicts frequency of hVα24 NKT PBL, doubly-stained by anti-Vα24 and CD1d-αGalCer tetramers, in PBMC cultured for 4 days in the presence of 100 ng/ml αGalCer, iGb3, or medium alone, as indicated.
Lymphocyte preparation and flow cytometry. Lymphocyte preparations, CD1d-αGalCer tetramers, and flow cytometry staining were done according to standard protocols, e.g., those described in Zhou D et al., Science 303, 523-27 (2004), incorporated herein by reference in its entirety.
Chemically synthesized globotrihexosylceramide (Gb3, Gal α1,4 Gal β1,4 Glc β1,1 Cer) and isoglobotrihexosylceramide (iGb3, Gal α1,3 Gal β1,4 Glc β1,1 Cer) were tested for their ability to stimulate NKT cells in the presence of antigen-presenting cells.

[7] = tested on: hVα24 NKT line; test: Inhibition of the response of the hVα24 NKT line to PBMC-derived dendritic cells (GMCSF release, ELISA); assay type: cell-based, human; details: PBMC-derived dendritic cells plus exogenous ligand
Protocol: as §1, with “Cytokines released in the culture supernatant were measured by standard ELISA for human IL-4 and IFN-γ (Pharmingen-Becton Dickinson, CA), and the indicator CTLL IL2 bioassay for mouse hybridomas.” left out

[8] = tested on: Vα14 DN32.D3 hybridoma; test: Vα14 DN32.D3 hybridoma stimulation by spleen cells pulsed with αGalCer variants; assay type: cell-based, mouse
Excerpt: FIG. 2B depicts Vα14 DN32.D3 hybridoma stimulation responses to spleen cells from Hexb^−/− (o) and Hexb^−/− littermates (●), αGalAl-(▪) and CD1-TD knock-in (▴) mice. Spleen cells were pulsed with αGalCer variants as indicated prior to hybridoma stimulation. The data are representative of 2 separate experiments.
as §1, with “hours. […]” for “hours.”

[9] = presented by irradiated PBMC, listed as Synthetic iGb3
[10] = presented by irradiated PBMC, listed as iGb3 produced in vitro by action of iGb3 synthase
[11] = presented by irradiated PBMC, listed as natural iGb3 purified from cat intestine

In the case of CCCCCCCCCCCCC/C=C/[C@@H](O)[C@H](CO[C@@H]1O[C@H](CO)[C@@H](O[C@@H]2O[C@H](CO)[C@H](O)[C@H](O[C@H]3O[C@H](CO)[C@H](O)[C@H](O)[C@H]3O)[C@H]2O)[C@H](O)[C@H]1O)NC(=O)CCCCCCCCCCCCCCCCCCCCCCCCC [iGb3, isoglobotrihexosylceramide], the “stimulation of human Vα24 NKT cells” value [1] is reported as “potent stimulator”, the “Th1 (IFNγ) cytokine secretion by polyclonal human NKT line” value (“Th1 (IFNγ) cytokine secretion” for short) [1, 9] is reported as “stimulated potent” and the “Th2 (IL4) cytokine secretion by polyclonal human NKT line” value (“Th2 (IL4) cytokine secretion” below) [1, 9] is reported as “stimulated potent”. The “Th1 (IFNγ) cytokine secretion” value [1, 10] was “levels comparable to αGalCer”, the “Th2 (IL4) cytokine secretion” value [1, 10] was “levels comparable to αGalCer” and the “Th1 (IFNγ) cytokine secretion” value [1, 11] was “levels comparable to αGalCer”. The “Th2 (IL4) cytokine secretion” value [1, 11] was “levels comparable to αGalCer”, the “cloned CD4 and DN human NKT lines showing cytokine secretion” value ([1]; presented by irradiated PBMC, lines responding/tested, not shown) was 2/2 and the “loading onto mCD1d-GT by mouse versus human saposin B” value [2] was “equally loaded”. The “replacement of GT1b preloaded onto CD1d” value [2] was “partial replacement; also recorded: required saposin B”, the “stimulation of non-Vα14 hybridomas” value [3] was “failed to stimulate 3/3” and the “presentation to DN32.D3 by Hexb−/− cells” value [4] was “presented”. For the same compound, the “other individual mVα14 hybridomas stimulated” value ([4]; bone marrow-derived dendritic cells, hybridomas responding/tested, not shown) was 5/5, the “stimulation of mouse Vα14 NKT cells” value [4] was “potent stimulator” and the “stimulation of mVα14 NKT cell hybridoma DN32.D3” value ([4]; presented by CD1d-expressing bone marrow-derived dendritic cells) was “stimulated”. For the same compound, the “direct stimulation of Vα14 NKT cells by CD1d/lipid complexes” value [5] was “directly stimulated” and the “stimulation and expansion of human NKT cells (frequency of hVα24 NKT PBL)” value [6] was “selectively stimulated and expanded”.

In the case of CCCCCCCCCCCCC/C=C/[C@@H](O)[C@H](COC1OC(CO)C(OC2OC(CO)C(O)C(OC3OC(CO)C(O)C(OC4OC(CO)C(O)C(O)C4NC(C)=O)C3O)C2O)C(O)C1O)NC(=O)CCCCCCCCCCCCCCCCCCCCCCCCC (stereo partly shown) [iGb4], the “stimulation of human Vα24 NKT cells” value [1] is reported as “stimulatory”, the “loading onto mCD1d-GT by mouse versus human saposin B” value [2] is reported as “equally loaded” and the “replacement of GT1b preloaded onto CD1d” value [2] is reported as “partial replacement; also recorded: required saposin B”. For the same compound, the “presentation to DN32.D3 by Hexb−/− cells” value [4] was “failed to present”, the “stimulation of mouse Vα14 NKT cells” value [4] was “stimulatory” and the “direct stimulation of Vα14 NKT cells by CD1d/lipid complexes” value [5] was “very weak response”.

In the case of CCCCCCCCCCCCCCCCCCCCCCCCCC(=O)N[C@@H](CO[C@H]1O[C@H](CO)[C@H](O)[C@H](O)[C@H]1O)[C@H](O)[C@H](O)CCCCCCCCCCCCCC [αGalCer, α-galactosylceramide, reference compound], the “GMCSF release in the supernatant, control without lectin” value [7] is reported as 939 pg/mL and the “stimulation and expansion of human NKT cells (frequency of hVα24 NKT PBL)” value [6] is reported as “selectively stimulated and expanded”.

In the case of Gal α1,2 Gal αCer, the “presentation to DN32.D3 by α-Galactosidase A (αGalA)−/− cells” value [8] is reported as “selective defect”.

With Gal α1,4 Gal αCer the “presentation to DN32.D3 by α-Galactosidase A (αGalA)−/− cells” value [8] was “selective defect”.

In the case of GalNAc β1,4 Gal αCer, the “presentation to DN32.D3 by Hexb−/− cells” value [8] is reported as “selective defect”.
